Data as given in US20090269394A1, “METHODS AND COMPOSITIONS FOR TREATING ONCHOMYCOSIS” (priority 2008, published 2009).
In brackets after ≈: the same amount, converted by molar mass. Where two headings read alike, the source gives them in different places.

Key:
Epicoccum nigrum = test: MIC against rare onychomycosis pathogens (CLSI M 38-A); assay type: cell-based; conditions: 3 isolates; NB-002 as μg CPC/ml
Text: (§1) Methods: All fungi were from patients, many of which had onychomycosis or another tinea infection.

Paecilomyces spp. = test: as above; assay type: cell-based; conditions: 4 isolates; NB-002 as μg CPC/ml
Text: as §1

Alternaria spp. = test: as above; assay type: cell-based; conditions: 3 isolates; NB-002 as μg CPC/ml
Text: as §1

Phoma sp. = test: as above; assay type: cell-based; conditions: 3 isolates; NB-002 as μg CPC/ml
Text: as §1

Scopulariopsis spp. = test: as above; assay type: cell-based; conditions: 5 isolates; NB-002 as μg CPC/ml
Text: as §1

Curvularia spp. = test: as above; assay type: cell-based; conditions: 3 isolates; NB-002 as μg CPC/ml
Text: as §1

Scytalydium spp. = test: as above; assay type: cell-based; conditions: 10 isolates; NB-002 as μg CPC/ml
Text: as §1

Trichophyton soundanense = test: as above; assay type: cell-based; conditions: 3 isolates; NB-002 as μg CPC/ml
Text: as §1

Aspergillus spp. = test: as above; assay type: cell-based; conditions: 5 isolates; NB-002 as μg CPC/ml
Text: as §1

Chaetomium spp. = test: as above; assay type: cell-based; conditions: 3 isolates; NB-002 as μg CPC/ml
Text: as §1

Scedosporium spp. = test: as above; assay type: cell-based; conditions: 5 isolates; NB-002 as μg CPC/ml
Text: as §1

Trichophyton verrucosum = test: as above; assay type: cell-based; conditions: 3 isolates; NB-002 as μg CPC/ml
Text: as §1

[1] = tested on: Candida albicans isolates; test: MIC/MFC microtiter broth dilution; assay type: cell-based; conditions: NB-002 as μg CPC/ml
Fusarium spp. = test: MIC against rare onychomycosis pathogens (CLSI M 38-A); assay type: cell-based; conditions: 10 isolates; NB-002 as μg CPC/ml
Text: as §1

Acremonium spp. = test: as above; assay type: cell-based; conditions: 5 isolates; NB-002 as μg CPC/ml
Text: as §1

[2] = tested on: Trichophyton mentagrophytes; test: MIC/MFC microtiter broth dilution; assay type: cell-based; conditions: for MIC90 / MIC50: Trichophyton mentagrophytes; for MFC50 / MFC90 / MIC range: n = 14 isolates, NB-002 as μg CPC/ml
T. rubrum = test: Time-kill experiments on mycelia and microconidia; assay type: cell-based, Trichophyton rubrum
Protocol: Time-kill experiments. […] Part of the conidial suspension was pelleted and resuspended in RPMI 1640 medium and grown for 16-18 hours overnight at room temperature to allow germination of microconidia. After germination, the hyphae were collected by centrifugation and resuspended in distilled water. […] Colony-forming units were counted after four days of incubation at 35° C.

Epidermophyton floccosum [3] = test: MIC/MFC microtiter broth dilution; assay type: cell-based; conditions: n = 6 isolates; NB-002 as μg CPC/ml
Epidermophyton floccosum [4] = test: microbe, parasite or virus in culture; assay type: cell-based; conditions: read-out: Final MIC
Protocol: (§2) Phenotypically resistant isolates were tested for MICs and compared to parental MICs.

Trichophyton rubrum [5] = test: microbe, parasite or virus in culture; assay type: cell-based
Protocol: as §2

[6] = tested on: Trichophyton mentagrophytes; test: microbe, parasite or virus in culture; assay type: cell-based
Protocol: as §2

M. audouinii = test: MIC against species that cause tinea capitis; assay type: cell-based; conditions: M. audouinii n = 10
Trichophyton tonsurans = test: MIC/MFC microtiter broth dilution; assay type: cell-based
T. violaceum = test: MIC against species that cause tinea capitis; assay type: cell-based; conditions: T. violaceum n = 10
Microsporum canis = test: MIC/MFC microtiter broth dilution; assay type: cell-based; conditions: M. canis n = 10 (tinea capitis species)
Trichophyton rubrum [7] = assay type: cell-based; conditions: 10^7 conidia plated; NBD031-b; drug plate 0.125 μg/ml
[8] = cited from earlier work
[9] = Azole-Resistant isolates (n = 24)
[10] = Azole-Susceptible isolates (n = 10)
[11] = Candida albicans, Azole-Resistant isolates (n = 24), read-out: MIC90
[12] = Candida albicans, Azole-Susceptible isolates (n = 10), read-out: MIC90
[13] = read-out: Final MIC, isolate NBD031-a, selected on NB-002 drug plate 16 μg/ml
[14] = read-out: Final MIC, isolate NBD031-b, selected on itraconazole drug plate 0.125 μg/ml
[15] = read-out: Final MIC, isolate NBD031-c, selected on terbinafine drug plate 0.125 μg/ml
[16] = read-out: Final MIC, isolate NBD012-a, selected on NB-002 drug plate 8 μg/ml
[17] = read-out: Final MIC, isolate NBD012-b, selected on NB-002 drug plate 16 μg/ml
[18] = read-out: Final MIC, isolate NBD012-c, selected on NB-002 drug plate 32 μg/ml
[19] = read-out: Final MIC, isolate NBD012-d, selected on terbinafine drug plate 0.0625 μg/ml
[20] = read-out: Final MIC, isolate NBD013-a, selected on itraconazole drug plate […]
[21] = read-out: Final MIC, isolate NBD014-a, selected on NB-002 drug plate 32 μg/ml
[22] = T. tonsurans n = 10 (tinea capitis species)

Row | Compound | MIC range (Epicoccum nigrum) | MIC range (Alternaria spp.) | MIC range (Phoma sp.) | MIC range (Curvularia spp.) | MIC range (Trichophyton soundanense) | MIC range (Aspergillus spp.) | MIC range (Chaetomium spp.) | MIC range (Trichophyton verrucosum) | MFC90 [1, 9] | MFC90 [1, 10] | MIC90 [1, 11] | MIC90 [1, 12] | MIC90 [2] | MIC50 ([2]; read-out: MIC50) | MFC50 [2] | MFC90 [2] | MIC range [2] | MIC range (Epidermophyton floccosum [3]) | other results
1 | C[C@@H]1[C@H](O)[C@@H](C)/C=C/C=C/C=C/C=C/C=C/C=C/C=C/[C@H](O[C@@H]2O[C@H](C)[C@@H](O)[C@H](N)[C@@H]2O)C[C@@H]2O[C@](O)(C[C@@H](O)C[C@@H](O)[C@H](O)CC[C@@H](O)C[C@@H](O)CC(=O)O[C@H]1C)C[C@H](O)[C@H]2C(=O)O [Amphotericin B] | 0.25 to 1 µg/mL | 1 µg/mL (≈ 1.08 µM) | 0.5 to 2 µg/mL | 0.125 to 1 µg/mL | 0.125 to 0.25 µg/mL | 1 to 4 µg/mL | 0.5 to 4 µg/mL | 0.125 to 0.25 µg/mL | 4 µg/mL (≈ 4.33 µM) | 2 µg/mL (≈ 2.16 µM) |  |  |  |  |  |  |  |  | MIC range (Paecilomyces spp.): >16 µg/mL; MIC range (Scopulariopsis spp.): >16 µg/mL; MIC range (Scytalydium spp.): 0.5 to 1 µg/mL; MIC range (Scedosporium spp.): >16 µg/mL; MIC90 [1, 9]: 2 µg/mL (≈ 2.16 µM); MIC90 [1, 10]: 2 µg/mL (≈ 2.16 µM)
2 | Cc1cc(C2CCCCC2)n(O)c(=O)c1 [Ciclopirox] | 0.125 to 2 µg/mL | 0.25 to 0.5 µg/mL | 0.5 to 1 µg/mL | 0.5 to 1 µg/mL | 0.125 to 0.25 µg/mL | 0.5 to 2 µg/mL | 0.25 to 0.5 µg/mL | <=0.06-0.125 ug/ml | >32 µg/mL | >32 µg/mL | 1 µg/mL (≈ 4.82 µM) | 4 µg/mL (≈ 19.3 µM) | 1 µg/mL (≈ 4.82 µM) | 0.5 µg/mL (≈ 2.41 µM) | 1 µg/mL (≈ 4.82 µM) | 16 µg/mL (≈ 77.2 µM) | 0.125 to 1 µg/mL | 0.5 µg/mL (≈ 2.41 µM) | MIC range (Paecilomyces spp.): 8 to 16 µg/mL; MIC range (Fusarium spp.): 1 to 16 µg/mL; MIC range (Scopulariopsis spp.): 0.5 to 2 µg/mL; MIC range (Scytalydium spp.): 0.5 to 1 µg/mL; MIC range (Acremonium spp.): 0.5 to 4 µg/mL; MIC range (Scedosporium spp.): 0.5 to 8 µg/mL; reduction in colony counts (T. rubrum; 16×MIC or 8 μg/ml, after 8 hours, nongrowing mycelia (not microconidia), isolate NBD032): 3 log; activity against the conidial form (T. rubrum; 16×MIC, up to 24 hours, nongrowth conditions): no activity; MIC (Epidermophyton floccosum [4]): 4 µg/mL (≈ 19.3 µM); MIC (Trichophyton rubrum [5]; [13]): 4 µg/mL (≈ 19.3 µM); MIC (Trichophyton rubrum [5]; [14]): 4 µg/mL (≈ 19.3 µM); MIC (Trichophyton rubrum [5]; [15]): 4 µg/mL (≈ 19.3 µM); MIC [6, 16]: 4 µg/mL (≈ 19.3 µM); MIC [6, 17]: 4 µg/mL (≈ 19.3 µM); MIC [6, 18]: 4 µg/mL (≈ 19.3 µM); MIC [6, 19]: 4 µg/mL (≈ 19.3 µM); MIC [6, 20]: 4 µg/mL (≈ 19.3 µM); MIC [6, 21]: 4 µg/mL (≈ 19.3 µM)
3 | Clc1ccc(COC(Cn2ccnc2)c2ccc(Cl)cc2Cl)cc1 (stereo not shown) [Econazole] |  |  |  |  |  |  |  |  |  |  |  |  | 0.25 µg/mL (≈ 0.655 µM) | 0.25 µg/mL (≈ 0.655 µM) | 8 µg/mL (≈ 21 µM) | >16 µg/mL | 0.125 to 0.25 µg/mL | 0.0625 to 0.125 µg/mL | MFC Range (Epidermophyton floccosum [3]): 0.0625 to 4 µg/mL
4 | OC(Cn1cncn1)(Cn1cncn1)c1ccc(F)cc1F [Fluconazole] |  |  |  |  |  |  |  |  | >64 µg/mL | >64 µg/mL | > 64 µg/mL | 0.5 µg/mL (≈ 1.63 µM) |  |  |  |  |  |  | 
5 | COC1=CC(=O)C[C@@H](C)[C@]12Oc1c(Cl)c(OC)cc(OC)c1C2=O [Griseofulvin] |  |  |  |  |  |  |  |  |  |  |  |  | 2 µg/mL (≈ 5.67 µM) | 0.5 µg/mL (≈ 1.42 µM) | 8 µg/mL (≈ 22.7 µM) | >16 µg/mL | 0.25 to 4 µg/mL | 1 to 2 µg/mL | MIC50 (M. audouinii): 0.25 µg/mL (≈ 0.709 µM); MIC90 (M. audouinii): 1 µg/mL (≈ 2.83 µM); MIC range (M. audouinii; in µg/mL): 0.12-1.0; MIC range (Trichophyton tonsurans; T. tonsurans (n = 6), NB-002 as μg CPC/ml): 0.5 to 1 µg/mL; MIC50 (Trichophyton tonsurans; [22]): 0.5 µg/mL (≈ 1.42 µM); MIC90 (Trichophyton tonsurans; [22]): 1 µg/mL (≈ 2.83 µM); MIC range (Trichophyton tonsurans; T. tonsurans n = 10 (tinea capitis species), in µg/mL): 0.5-1.0; MIC50 (T. violaceum): 4 µg/mL (≈ 11.3 µM); MIC90 (T. violaceum): 4 µg/mL (≈ 11.3 µM); MIC range (T. violaceum; in µg/mL): 1.0-8.0; MIC50 (Microsporum canis): 0.25 µg/mL (≈ 0.709 µM); MIC90 (Microsporum canis): 0.5 µg/mL (≈ 1.42 µM); MIC range (Microsporum canis; in µg/mL): 0.25-0.5; MFC Range (Epidermophyton floccosum [3]): 1 to 16 µg/mL
6 | CCC(C)n1ncn(-c2ccc(N3CCN(c4ccc(OCC5COC(Cn6cncn6)(c6ccc(Cl)cc6Cl)O5)cc4)CC3)cc2)c1=O (stereo not shown) [Itraconazole] | 0.25 to 0.5 µg/mL | 0.25 to 0.5 µg/mL | 0.06 to 0.5 µg/mL | 0.125 to 0.25 µg/mL | 0.125 to 0.25 µg/mL | 0.06 to 1 µg/mL | 0.5 to 1 µg/mL | 0.06 to 0.125 µg/mL | >16 µg/mL | >16 µg/mL | > 16 µg/mL | 0.5 µg/mL (≈ 0.709 µM) | 0.5 µg/mL (≈ 0.709 µM) |  | 8 µg/mL (≈ 11.3 µM) | >16 µg/mL | 0.0625 to 0.5 µg/mL | 0.125 to 0.5 µg/mL | # CFU recovered (Trichophyton rubrum [7]): 2; MIC range (Acremonium spp.): >8 µg/mL; MIC50 [2]: 0.125 µg/mL (≈ 0.177 µM); reduction of colony counts / activity on mycelia and microconidia (T. rubrum; 16×MIC, up to 24 hours, nongrowth conditions (FIG. 10)): no activity; MIC (Epidermophyton floccosum [4]): 0.25 µg/mL (≈ 0.354 µM); MIC (Trichophyton rubrum [5]; [13]): 0.0625 µg/mL (≈ 0.0886 µM); MIC (Trichophyton rubrum [5]; [14]): 0.0625 µg/mL (≈ 0.0886 µM); MIC (Trichophyton rubrum [5]; [15]): 0.0313 µg/mL (≈ 0.0444 µM); MIC [6, 16]: 0.0625 µg/mL (≈ 0.0886 µM); MIC [6, 17]: 0.0625 µg/mL (≈ 0.0886 µM); MIC [6, 18]: 0.0625 µg/mL (≈ 0.0886 µM); MIC [6, 19]: 0.0625 µg/mL (≈ 0.0886 µM); MIC [6, 20]: 0.125 µg/mL (≈ 0.177 µM); MIC [6, 21]: 0.0625 µg/mL (≈ 0.0886 µM)
7 | CN(C/C=C/C#CC(C)(C)C)Cc1cccc2ccccc12.Cl [Terbinafine hydrochloride] |  |  |  |  |  |  |  |  |  |  |  |  |  |  |  |  |  |  | solubility in ethanol ([8]; in words): soluble; solubility in methanol and dichloromethane ([8]; in words): freely soluble; solubility in water ([8]; in words): slightly soluble
8 | Clc1ccc(COC(Cn2ccnc2)c2ccc(Cl)cc2Cl)c(Cl)c1 (stereo not shown) [miconazole] |  |  |  |  |  |  |  |  |  |  |  |  |  |  |  |  |  |  | Ethanol Solubility [8]: 94 mg/mL; Log P [8]: 6.1; Soybean Solubility [8]: 74 mg/mL; pKa [8]: 6.67
